Measured values reported in paper PMC8199471, “Identification, Characterization and Antihypertensive Effect In Vivo of a Novel ACE-Inhibitory Heptapeptide from Defatted Areca Nut Kernel Globulin Hydrolysates” (Molecules, 2021).
One block for each compound: values may come before it. Ends that are not written are not given here.

How the values were obtained:
[1] = tested on: spontaneously hypertensive rats (SHRs); experiment: Antihypertensive effect in vivo, tail-cuff SBP and DBP; parameters: species or system rat; conditions: positive control, oral 14 mg/kg/body weight once daily, throughout the experiment period
Procedure: The antihypertensive effect of the synthesized peptide was determined as per the same procedure described by Zheng et al.. Briefly, spontaneously hypertensive rats (SHRs, male, 12 weeks age) were purchased from VRL Animal Technology Co., Ltd. (Beijing, China). The SHRs were randomly divided into positive control group, low-, middle- and high-dosage groups, and negative control group. Each group contains four rats. […] In addition, SHRs in the negative group were orally given saline (0.9%). After an adaptation period of one week, the weight, systolic blood pressure (SBP) and diastolic blood pressure (DBP) of SHRs were measured using the tail-cuff method once week. Moreover, the animal experiment was conducted in conformity with institutional guidelines for the care and use of laboratory animals in Shanxi University of Chinese Medicine, Taiyuan, China. All the rats received human care conforming to the National Institutes of Health Guide for care and Use of Laboratory Animals (Publication No. 85-23, revised 1985).

ACE (from rabbit lung) = molecular target: T1, ACE (from rabbit lung) (Oryctolagus cuniculus, UniProt P12822); experiment: ACE-inhibitory activity assay (HHL substrate, method of Jimsheena and Gowda); format: biochemical; conditions: synthesized peptide; calculated from regression y = 12.464 ln(x) − 28.656
T1 construct: ACE (from rabbit lung); purchased Sigma Co., St. Louis, MO, USA; host or cells: rabbit lung (tissue-derived)
T1 sequence (P12822 34-1310): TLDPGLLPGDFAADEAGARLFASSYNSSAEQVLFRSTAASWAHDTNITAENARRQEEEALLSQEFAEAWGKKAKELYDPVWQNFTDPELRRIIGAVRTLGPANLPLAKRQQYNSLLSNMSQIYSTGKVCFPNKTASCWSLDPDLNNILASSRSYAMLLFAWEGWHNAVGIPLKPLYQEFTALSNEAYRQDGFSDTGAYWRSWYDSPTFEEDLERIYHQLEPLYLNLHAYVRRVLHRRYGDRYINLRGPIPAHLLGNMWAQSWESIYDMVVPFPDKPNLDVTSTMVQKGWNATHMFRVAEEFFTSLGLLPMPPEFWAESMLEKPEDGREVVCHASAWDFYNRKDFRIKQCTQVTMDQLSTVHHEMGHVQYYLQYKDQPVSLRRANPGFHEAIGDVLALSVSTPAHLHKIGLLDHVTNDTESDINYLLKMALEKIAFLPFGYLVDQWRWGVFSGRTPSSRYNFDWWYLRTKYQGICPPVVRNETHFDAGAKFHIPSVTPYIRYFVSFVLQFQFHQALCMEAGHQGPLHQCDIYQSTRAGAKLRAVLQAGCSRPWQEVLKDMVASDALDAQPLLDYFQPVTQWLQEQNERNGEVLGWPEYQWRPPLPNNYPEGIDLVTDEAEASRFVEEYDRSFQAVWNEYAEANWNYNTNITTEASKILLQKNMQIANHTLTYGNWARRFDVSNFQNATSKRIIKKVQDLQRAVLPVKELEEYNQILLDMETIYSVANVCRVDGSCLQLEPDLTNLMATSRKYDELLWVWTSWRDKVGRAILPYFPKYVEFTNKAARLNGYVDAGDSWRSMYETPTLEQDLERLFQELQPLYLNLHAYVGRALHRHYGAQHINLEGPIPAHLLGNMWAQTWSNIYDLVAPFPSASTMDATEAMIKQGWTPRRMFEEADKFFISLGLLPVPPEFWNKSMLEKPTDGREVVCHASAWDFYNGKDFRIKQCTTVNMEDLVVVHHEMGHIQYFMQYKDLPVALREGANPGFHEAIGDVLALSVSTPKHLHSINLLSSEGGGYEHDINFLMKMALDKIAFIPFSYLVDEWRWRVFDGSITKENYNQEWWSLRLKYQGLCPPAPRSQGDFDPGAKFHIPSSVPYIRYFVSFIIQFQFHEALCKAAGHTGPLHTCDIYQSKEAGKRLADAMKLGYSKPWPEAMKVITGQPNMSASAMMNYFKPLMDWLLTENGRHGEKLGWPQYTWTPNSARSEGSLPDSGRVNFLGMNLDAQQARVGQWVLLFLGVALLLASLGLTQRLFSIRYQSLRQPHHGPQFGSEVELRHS
Text: Areca nut kernel was purchased from Sanpo Palm Ground Part Co., Haikou, China. Cellulase (from Trichoderma viride G, 3.0 × 10^5 U), trypsin (5 × 10^[…]) and alcalase (1 × 10^[…]) were purchased from Tian Keji Co., Ltd. (Tianjin, China). EA.hy926 cells were purchased from the Type Culture Collection of the Chinese Academy of Sciences, Shanghai, China. Captopril, ACE (from rabbit lung) and N-Hippuryl-His-Leu hydrate (HHL) were purchased from Sigma Co., St. Louis, MO, USA. Endothelin-1 Elisa kit was from Pensui Biotech Co. (Wuhan, China). DMEM (Dulbecco's modified Eagle's medium) were obtained from JiQing Biotech. Co., Ltd. (Nanjing, China). Other chemicals and reagents were of analytical grade and purchased from Peisu Co., Ltd. (Xi'an, China). ACE-inhibitory activity was determined using the same procedure as described by Jimsheena and Gowda. The concentration of the sample required for inhibiting 50% of ACE activity was defined as IC50 value. The ACE inhibition kinetics of peptides identified in ANKGH was analyzed by Lineweaver-Burk plots of 1/V versus 1/HHL in the presence of the inhibitor [17]. The concentrations of HHL (N-hippuryl-His-Leu hydrate) used were 0.76 to 7.60 mM.

ACE = tested on: ACE; parameters: method as in 2 sources, one per row (each row's own in cited_ref): ref 18 = [18]; PMID 29606478; doi:10.1016/j.foodchem.2018.02.107; 18. Tu M. Wang C. Chen C. Zhang R. Liu H. Lu W. Jiang L. Du M. Identification of a novel ACE-inhibitory peptide from casein and evaluation of the inhibitory mechanisms Food Chem. 2018 256 98 104 10.10 ||| ref 20 = [20]; PMID 30229250; doi:10.1039/C8FO00569A; 20. Ling Y. Sun L.P. Zhuang Y.L. Preparation and identification of novel inhibitory angiotensin-I-converting enzyme peptides from tilapia skin gelatin hydrolysates: Inhibition kinetics and molecular d; conditions: peptide identified in casein protein; cited from earlier work

Compound: C[C@H](CS)C(=O)N1CCC[C@H]1C(=O)O [Captopril]
DBP of SHRs among all test groups [1]: lowest
SBP of SHRs among all test groups [1]: lowest

IC50 (ACE (from rabbit lung)): 550 µM
Compound: APKIEEV [APKIEEV, Ala–Pro–Lys–Ile–Glu–Glu–Val]

Compound: NMAINPSKENLCSTFCK
IC50 (ACE): 129 µM
